The subject of data set [1] is OCTs. As to the kind of experiment: Inhibition of [14C]choline uptake in MCF-7 cells (competitive inhibition assay). The class given is cell-based, human. As to conditions: for IC50: mean ± SD (n = 3). On the procedure:
(§1) The following day, after removal of the culture medium, the cells were carefully washed with prewarmed HBSS (Hanks’ balanced salt solution) containing 125 mM NaCl, 4.8 mM KCl, 1.2 mM MgSO4, 1.2 mM KH2PO4, 1.3 mM CaCl2, 5.6 mM glucose and 25 mM HEPES (pH 7.4). […] Then, the cells were washed three times with ice-cold HBSS (500 μL) and were lysed with 250 μL of 0.1-M NaOH in the ice bath, and the lysate was mixed with 1.0 mL of an emulsifier safe cocktail (PerkinElmer, Waltham, MA, USA). The radioactivity was measured by liquid scintillation counting (MicroBeta^2 counter, PerkinElmer, Waltham, MA, USA). The studies were carried out with the use of at least three replicates from the same cell passage.

Data set [2] deals with MDA-MB-231 cells. As to the kind of experiment: Uptake in the presence of OCT and MATE inhibitors, MDA-MB-231 cells. The class given is in vitro ADME, human. As to conditions: summary from uptake with inhibitors. On the procedure: (§2) The uptake of sulfonamide derivatives of metformin (1–9) in MCF-7 and MDA-MB-231 cells was studied also in the presence of disopyramide, cimetidine (OCT1 and 3 inhibitors), lopinavir (OCT and PMAT inhibitor) and methenamine (MATE and OCT2 inhibitors). The cells were incubated (37 °C, 10 min) with compounds 1–9 at concentrations of 400 and 800 μmol/L and inhibitors (disopyramide, cimetidine, lopinavir or methenamine) in 250 μL of prewarmed HBSS buffer. The protocol of determination of the compound concentration was as described above.

The test system of data set [3] is MCF-7 cells. Kind of data set: Cell viability WST-1 assay, MCF-7. Format: cell-based. As to conditions: Homo sapiens, MCF7; WST-1, 24 h, mean ± SD (n = 6–8); read-out: IC50 inhibition of MCF-7 cells' viability. On the procedure:
(§3) The viability of MCF-7 and MDA-MB-231 cells was determined using a colorimetric WST-1 assay (Takara, Takara Bio Europe, Saint-Germain-en-Laye, France). Both cell lines were seeded at a density of 1 × 10^4 per well on 96-well plates and were cultured for 24 h to obtain 70% confluence. The following day, the cells were treated with various concentrations of compounds 1–9 diluted in the cell culture medium ([…]). The cells were incubated with tested compounds or pure medium (control) for 24 h (37 °C, 5% CO2). Afterwards, the cells were washed with 100 μL of culture medium, and then, the reagent dissolved in the medium was added (100 μL). The plates were incubated at the standard condition for 1.5 h, and the absorbance was read at 450 nm using a microplate reader (iMARK, Bio-Rad, Bio-Rad Laboratories Inc., Hercules, CA, USA). […] The results of samples treated with the test compounds were expressed as a percentage of the control samples. The data were presented as mean ± standard deviation (SD), n = 8. IC50 values (the concentration of the tested compound that inhibited cell growth by 50%) were calculated using a concentration-response curve (GraphPad Prism, Software, San Diego, CA, USA).
(§4) The concentrations contributing to the 50% of cell growth inhibition (IC50) were calculated using nonlinear regression analysis (fitting the curve to log (concentration) vs. cellular response).
A general note: Formazan colour is commonly taken as a measure of viable cells.

Data set [4] relates to MDA-MB-231 cells. Kind of data set: Cell viability WST-1 assay, MDA-MB-231. As to conditions: Homo sapiens, MDA-MB-231, 24 h, 3000 µmol/L, WST-1, 24 h; read-out: percentage of viability of MDA-MB-231 cells. The class given is cell-based. The method, then:
as §3, §4

Data set [5] has as its system MDA-MB-231 cells. As to the kind of experiment: Cellular uptake of metformin sulfonamides in MDA-MB-231 cells (HPLC). The class given is in vitro ADME, human. On the procedure: (§5) The uptake of metformin sulfonamides (1–9) in MCF-7 and MDA-MB-231 cells was studied by incubation of the cells with 10−3000 μmol/L of compounds in 250 μL of prewarmed HBSS buffer at 37 °C for 10 min. Subsequently, the cells were then washed three times with 500 μL of ice-cold HBSS and lysed with 250 μL of 0.1-M NaOH. The samples were collected, centrifuged (5 min, 1400 rpm) and the supernatants were analyzed by the HPLC method. The concentration of each compound in the cells was calculated on the basis of the standard curve prepared by spiking known amounts of every compound on the cell layers in 250 μL of 0.1-M NaOH.
(§6) The concentration of the studied sulfonamides (1–9) was assessed using the HPLC system, consisting of an Agilent 1100 binary pump (Agilent Technologies Inc., Wilmington, DE, USA), an 1100 micro-vacuum degasser, an HP 1050 autosampler and an HP 1050 variable wavelength detector (operated at 235 nm). The chromatographic separations of compounds 1–9 were conducted on an Agilent Zorbax SB-C18 analytical column (4.6 mm × 150 mm, 5 μm) using an isocratic elution of water containing 0.1% formic acid (pH ca. 3.0) and acetonitrile containing 0.1% formic acid with a changing ratio, depending on the compound. The analyses were conducted at room temperature (RT). The detailed procedure of chromatographic analysis was described in our previous paper. The studies were conducted in quadruplicates.
(§7) The protein concentrations in representative wells of each plate were assessed using a Bio-Rad protein assay according to the Bradford method (EnVision, PerkinElmer, Inc., Waltham, MA, USA).

Data set [6] relates to MCF-7 cells. Kind of data set: Uptake in the presence of OCT and MATE inhibitors, MCF-7 cells. The class given is in vitro ADME, human. As to conditions: summary from uptake with inhibitors. On the procedure:
as §2

The subject of data set [7] is OCTs. Kind of data set: Inhibition of [14C]choline uptake in MDA-MB-231 cells (competitive inhibition assay). Format: cell-based, human. As to conditions: for IC50: mean ± SD (n = 3). The method, then:
as §1

Data set [8] concerns MCF-7 cells. As to the kind of experiment: Cellular uptake of metformin sulfonamides in MCF-7 cells (HPLC). Format: in vitro ADME, human. The method, then:
as §5, §6, §7

Data set [9] concerns MDA-MB-231 cells. As to conditions: metformin, cited from earlier work.
The subject of data set [10] is MDA-MB-231 cells. The arrangement: method as in PMID 30913467. As to conditions: up to 3000 µmol/L; cited from earlier work.
The test system of data set [11] is MCF-7 cells. The arrangement: method as in PMID 30913467. As to conditions: up to 3000 µmol/L; cited from earlier work.
Data set [12] relates to OCT3-BT20 cells. Also noted: method as in PMID 26669511. As to conditions: OCT3-overexpressing BT-20 vs BT-20; cited from earlier work.
The subject of data set [13] is MCF-7 cells. As to conditions: metformin, cited from earlier work.
The mark [14] stands for this setting: Eadie-Hofstee analysis, transporter I.
Setting [15] is: Eadie-Hofstee analysis, transporter I, read-out: Km, transporter I, MDA-MB-231.
The mark [16] stands for this setting: Eadie-Hofstee analysis, transporter II.
Where [17] appears, read: Eadie-Hofstee analysis, transporter II, read-out: Km, transporter II, MDA-MB-231.
[18] abbreviates: 800 μmol/L, 10 min incubation, 37 °C.
Where [19] appears, read: reported previously, ref Markowicz-Piasecka et al., 2019.

The structures appear in SMILES notation. Where two headings read alike, the source gives them in different places.

As for `CN(C)C(=N)N=C(N)NS(=O)(=O)c1cccc(F)c1` [Compound 8], the concentration for half-maximal inhibition (IC50) in [1] was determined as 7195 ± 5.3 µM; in data set [3], 171 ± 13.6 µM; in data set [7] it was 2284 ± 14 µM. The “interactions with OCT, PMAT and MATE1 transporters, MDA-MB-231” value in data set [2] is “OCT1, OCT3”. Further, the viability at 3000 µM in [4] is around 60%. Besides, in data set [5] (setting [14]), the “Vmax, transporter I, MDA-MB-231” value came to 0.049 ± 0.025 nmol/min/mg. The Michaelis-Menten constant (Km) was 1.23 ± 1.31 mM in data set [5] (setting [15]); 3.38 ± 2.13 mM in data set [5] (setting [17]); 7.4 ± 0.51 mM in [5] (Michaelis-Menten curve, read-out: Km MDA-231 cells (Michaelis Menten curves)); 2.84 ± 0.778 mM in [8] (Eadie-Hofstee analysis, transporter I, read-out: Km, transporter I, MCF-7). In data set [5] (setting [16]), the “Vmax, transporter II, MDA-MB-231” value was determined as 0.045 ± 0.021 nmol/min/mg. Besides, in data set [5] (Michaelis-Menten curve), the “Vmax MDA-231 cells (Michaelis Menten curves)” value is on record as 0.126 ± 0.032 nmol/min/mg. Further, in [5] (fold lower in MDA-MB-231 than in MCF-7), the “transport efficacy (Vmax/Km) in MCF-7 relative to MDA-MB-231” value was “approximately 22 fold”. In addition, the “interactions with OCT, PMAT and MATE1 transporters, MCF-7” value in data set [6] is given as “OCT1”. Also, in [8] (setting [14]), the “Vmax, transporter I, MCF-7” value was found to be 0.830 ± 0.171 nmol/min/mg. Also, in data set [8] (concentrations above 1600 μmol/L), the “uptake into MCF-7 cells at higher concentrations” value is 8–10 nmol/min/mg of protein.
In the case of `CN(C)C(=N)N=C(N)NS(=O)(=O)c1ccc(F)cc1` [Compound 9], the IC50 in data set [1] stood at 1057 ± 7.5 µM; in data set [3] it was 422 ± 32.8 µM; in data set [7], 1380 ± 14 µM. Besides, in [2], the “interactions with OCT, PMAT and MATE1 transporters, MDA-MB-231” value is on record as “OCT1, OCT3”. Besides, in [4], the viability at 3000 µM was around 60%. For the same molecule, the “uptake into MDA-MB-231 cells” value in [5] (setting [18]) was 0.021 ± 0.002 nmol/min/mg protein. The “Vmax, transporter I, MDA-MB-231” value in data set [5] (setting [14]) was 0.097 ± 0.015 nmol/min/mg. Moreover, the Km in data set [5] (setting [15]) was found to be 1.88 ± 0.429 mM; in data set [5] (setting [17]), 2.22 ± 0.618 mM. In addition, the “Vmax, transporter II, MDA-MB-231” value in data set [5] (setting [16]) was 0.053 ± 0.012 nmol/min/mg. In addition, the “interactions with OCT, PMAT and MATE1 transporters, MCF-7” value in data set [6] is reported as “PMAT”. Also, the “uptake into MCF-7 cells” value in data set [8] (setting [18]) is on record as 0.357 ± 0.112 nmol/min/mg protein.
On to `CN(C)C(=N)N=C(N)N` [Metformin], for which the “maximal inhibition of [14C] choline uptake” value is listed as 34.3% in data set [1] (2400 μmol/L) and 29.9% in data set [7] (2400 μmol/L). Also, in data set [9] (setting [19]), the “Vmax MDA-231 cells (Michaelis Menten curves)” value is listed as 0.718 ± 0.181 nmol/min/mg. The Michaelis constant (Km) in [9] (reported previously, ref Markowicz-Piasecka et al., 2019, read-out: Km MDA-231 cells (Michaelis Menten curves)) is 3.38 ± 0.952 mM; in data set [13] (reported previously, ref Markowicz-Piasecka et al., 2019, read-out: Km MCF-7 (Michaelis Menten curves)), 5.58 ± 1.56 mM. Also, in [9], the “uptake into MDA-MB-231 cells” value was 0.117 ± 0.010 nmol/min/mg of proteins. The “effect on MDA-MB-231 growth” value in data set [10] was “did not significantly affect”. In addition, the “effect on MCF-7 growth” value in data set [11] is listed as “did not significantly affect”. In data set [12], the “metformin uptake in OCT3-BT20 cells relative to BT-20 cells” value is “more than 13 fold”. Further, in [13] (setting [19]), the “Vmax MCF-7 (Michaelis Menten curves)” value is 0.801 ± 0.296 nmol/min/mg. Also, the “uptake into MCF-7 cells” value in data set [13] is 0.107 ± 0.006 nmol/min/mg of proteins.

The term IC50 denotes the concentration that inhibits the measured activity by half. Usually viability stands for a per cent measure of how many cells are alive, often set against a control. For orientation: Km means the substrate concentration at which the rate is half of its maximum.

(Values after paper PMC7177633, “Effective Cellular Transport of Ortho-Halogenated Sulfonamide Derivatives of Metformin Is Related to Improved Antiproliferative Activity and Apoptosis Induction in MCF-7 Cells” (International Journal of Molecular Sciences, 2020).)
